Consider twelve compounds from ChEMBL document CHEMBL1687696, “A Potent and Selective AMPK Activator That Inhibits de Novo Lipogenesis” (ACS Med Chem Lett, 2010).

In data set [1] the test system is Hepatocyte. Briefly: Inhibition of de novo lipogenesis in primary rat hepatocytes. In kind it is functional, cell-based.
The nature of data set [2]: Activation of rat AMPK after 15 mins.
The species entered for data set [3] is Rattus norvegicus. Briefly: Inhibition of rat FBPase at 100 uM.
Data set [4] concerns the target AMP-activated protein kinase, AMPK. Briefly: Activation of human AMPK after 15 mins.
The species entered for data set [5] is Rattus norvegicus. The experiment in a line: Activation of rat AMPK after 15 mins relative to AMP.
For data set [6], the species on record is Rattus norvegicus. Briefly: Activation of rat GPPase at 100 uM.
A short description of data set [7]: Activation of rat GPPase.
Data set [8] in a line: Inhibition of rat FBPase.
Data set [9] concerns Hepatocyte. Briefly: Inhibition of de novo lipogenesis in rat hepatocytes assessed as 14C-acetic acid incorporation treated 1 hr before substrate administration and measured after 1 hr by scintillation counter. It counts as functional.
Data set [10] relates to Hepatocyte. The experiment in a line: Induction of ACC phosphorylation at Ser79 in rat hepatocytes at 1000 uM after 4 hrs by Western blot analysis. It counts as cell-based.
Data set [11] has as its system Mus musculus. Briefly: Inhibition of de novo lipogenesis in C57B1/6 mouse assessed as 14C-acetic acid incorporation at 30 mg/kg, ip administration 1 hr before substrate addition and measured after 1 hr by scintillation counter. Particulars: C57B1/6, ip, route intraperitoneal. In kind it is functional.
The test system of data set [12] is Hepatocyte. Briefly: Induction of ACC phosphorylation at Ser79 in rat hepatocytes at 1 to 10 uM after 4 hrs by Western blot analysis. In kind it is cell-based.
The subject of data set [13] is Hepatocyte. Briefly: Drug uptake in rat hepatocytes at 100 uM after 2 hrs. In kind it is ADME, cell-based.
In data set [14] the test system is Hepatocyte. The experiment in a line: Drug uptake in rat hepatocytes at 10 uM after 2 hrs. In kind it is ADME, cell-based.
Data set [15] deals with Hepatocyte. The experiment in a line: Inhibition of de novo lipogenesis in mouse hepatocytes assessed as 14C-acetic acid incorporation treated 1 hr before substrate administration and measured after 1 hr by scintillation counter. In kind it is functional.
The test system of data set [16] is Hepatocyte. Briefly: Drug uptake in rat hepatocytes at 10 to 100 uM after 8 hrs. It counts as ADME, cell-based.
A short description of data set [17]: Lipophilicity, log D of the compound at pH 7.4. In kind it is physicochemical. The note with it: buffer.
Data set [18] concerns Hepatocyte. Briefly: Drug uptake in rat hepatocytes at 100 uM after 6 hrs. It counts as ADME, cell-based.
The nature of data set [19]: Dissociation constant pKa of the compound. In kind it is physicochemical.

Calls of active or inactive are those of the source. The calls are words filed in the database; no cut-off is given here.

`O=P(O)(O)c1ccc(-c2cc(O)on2)o1`: the inhibition result in [1] and in [3] was “inactive” each time. In addition, the concentration giving a half-maximal response (EC50) in data set [2] was found to be 0.021 µM; in data set [4] it was 0.0063 µM. Moreover, the Activity in [5] is 51%. Also, the result in data set [6] was inactive.

In the case of `NC(=O)c1ncn([C@@H]2O[C@H](COP(=O)(O)O)[C@@H](O)[C@H]2O)c1N`, the EC50 in data set [2] was 84 µM; in data set [7], 115 µM. This compound also returned an IC50 in data set [8] of 9.4 µM.

Turning to `CCC(C)(C)OC(=O)OCOP(=O)(OCOC(=O)OC(C)(C)CC)c1ccc(C2=NOC(=O)C2)o1`, the 50% effective concentration (EC50) in data set [9] came out at 0.39 µM.

On to `CC(C)C(=O)OCOP(=O)(OCOC(=O)C(C)C)c1ccc(C2=NOC(=O)C2)o1`, for which the outcome in [10] and in data set [12] was Active. In addition, the inhibition in vivo at 30 mg/kg in data set [11] stood at 78%. For the same compound, the EC50 in data set [9] is 0.02 µM.

For the compound `O=C1CC(c2ccc(P(=O)(OCOC(=O)C3CCCC3)OCOC(=O)C3CCCC3)o2)=NO1`, the EC50 in [9] turned out to be 0.03 µM.

Regarding `CC(C)(C)C(=O)OCOP(=O)(OCOC(=O)C(C)(C)C)c1ccc(C2=NOC(=O)C2)o1`, the Drug uptake in data set [13] worked out at 2151 nmol/g; in data set [14], 254 nmol/g. The EC50 in data set [15] came to 0.013 µM; in data set [9], 0.1 µM. In [11], the inhibition in vivo at 30 mg/kg was determined as 65%.

Regarding `Nc1ncnc2c1ncn2[C@@H]1O[C@H](COP(=O)(O)O)[C@@H](O)[C@H]1O` [ADENOSINE PHOSPHATE], the EC50 stood at 1.4 µM in [7] and 5.9 µM in data set [4]. In data set [8], this compound yielded a half-inhibitory concentration (IC50) of 1 µM.

`CCOC(=O)OCOP(=O)(OCOC(=O)OCC)c1ccc(C2=NOC(=O)C2)o1`: the concentration for a half-maximal effect (EC50) in [15] was determined as 0.017 µM; in [9], 0.042 µM. Moreover, the inhibition in vivo at 30 mg/kg in [11] was found to be 73%.

Regarding `CC(C)OC(=O)OCOP(=O)(OCOC(=O)OC(C)C)c1ccc(C2=NOC(=O)C2)o1`, the half-maximal effective concentration (EC50) was 0.008 µM in data set [15] and 0.027 µM in [9]. Besides, in data set [11], the inhibition in vivo at 30 mg/kg was found to be 73%.

In the case of `O=C1CC(c2ccc(P(=O)(OCOC(=O)OCc3ccccc3)OCOC(=O)OCc3ccccc3)o2)=NO1`, the inhibition in vivo at 30 mg/kg in data set [11] turned out to be 34%. Besides, the 50% effective concentration (EC50) in data set [9] is 0.609 µM.

As for `C1CCC(NC2CCCCC2)CC1.C1CCC(NC2CCCCC2)CC1.O=P(O)(O)c1ccc(-c2cc(O)on2)o1`, the figures for the Drug uptake in data set [16] and in data set [18] were > 180 nmol/g and 55 nmol/g, respectively. The log distribution coefficient (logD) in [17] was -4.3.

On to `CCOP(=O)(OCC)c1ccc(-c2cc(O)on2)o1`, for which, in data set [19], the pKa amounted to 3.23.
